Publication PMC5700161, “Structure of human immunoproteasome with a reversible and noncompetitive inhibitor that selectively inhibits activated lymphocytes” (Nature Communications, 2017)

Columns and labels:
human β5c = human β5c (Homo sapiens, UniProt P20618+P28074); assay: IC50 determination against human β5c of c-20S
Experimental: (§1) IC50s of all compounds against β5i and β5c (Table 2) and against β1i, β2i, β1c, and β2c (Supplementary Table 1) were determined following reported methods[8].

luciferase = assay: Luciferase counter-test; type: biochemical; details: at 100 µM, tested over 0.002–100 µM
proliferating T cells = assay: Apoptosis and viability of proliferating vs non-proliferating T cells; type: cell-based, human; details: 4 days anti-CD3/anti-CD28, then 24 h; PKS21221 1 µM, BTZ 10 nM
Description: As we observed selective cytotoxicity of PKS21221 in activated B cells and ASCs compared to non-activated B cells, we asked whether this is the case in proliferating T cells. We activated human T cells to proliferate with anti-CD3 and anti-CD28 in the presence or absence of PKS21221 or bortezomib. […] To examine whether these inhibitors are cytotoxic preferentially to proliferating cells, we triggered T-cell proliferation with anti-CD3/anti-CD28 for 4 days (in the absence of inhibitors), treated the cells with PKS21221 for the next 24 h and determined cell survival with Annexin V and 7-AAD (Fig. 6c, d).
Fig. 6 Effect of PKS21221 and bortezomib (BTZ) on T-cell proliferation. T cells were isolated from human PBMC and stimulated with anti-CD3 (1 µg per ml) and anti-CD28 (1 µg per ml) for 4 days. […] Apoptosis c and viability d were assessed in proliferating and non-proliferating population of T cells. […]
T cells were isolated from human PBMCs using Human T-cell Isolation kit (StemCell Technologies, Cat#17951). […] Cells were counted and loaded with 5 μM CellTrace Violet (Thermo Fisher) in phosphate buffered saline (PBS) for 10 min at 37 °C, followed by wash in 10% fetal calf serum (FCS)-supplemented RPMI 1640 media. […] The viability and apoptosis were assessed using Annexin V Apoptosis Detection Kit (BD Biosciences). […]

β5i (i-20S) = target: T1, β5i (i-20S) (Homo sapiens, UniProt P20618+P28062); assay: Kinetics studies of modality of inhibition against β5i; type: biochemical
T1 construct: purchased Boston Biochem
Experimental: Data as in d are shown in double reciprocal plots in e, and data from f in g. […] Data are means ± SEM of three independent experiments […]
With increasing concentrations of PKS21004, both V max and K M decreased (Fig. 1d–g and Supplementary Fig. 1). […] This class thus joins a growing list of noncompetitive proteasome inhibitors[5],[30].
Supplementary Figure 11. Inhibition kinetics of PKS21221 against i-20S β5i. (A) Steady state velocities of the Ac-ANW-AMC hydrolysis at 10, 15, 25, 35 µM by i-20S β5i (0.4 nM) in the presence of PKS21221 at indicated concentrations were determined at 37 °C and plotted by RFU versus substrate concentration (A); values of KM, Ki and α were estimated by PRISM using equation V = (Vmax / (1 + I / (α*Ki))) * S / (KM * (1+ I / Ki) / (1 + I / (α*Ki)) + S); (B) Lineweaver-Burk plot of the data in (A). (C) Plot of KM versus concentrations of PKS21221 indicates a mixed type inhibition. (D) Plot of Vmax versus concentrations of PKS21221.
(1 picture or pasted object on this page, not shown here)

β2i = β2i (Homo sapiens, UniProt P40306); assay: IC50 against β2i of human immunoproteasome (Z-VLR-AMC); details: read-out: IC50 2i - VLR (β2i); substrate Z-VLR-AMC
Experimental: as §1

β2c = β2c (Homo sapiens, UniProt Q99436); assay: IC50 against β2c of human constitutive proteasome (Z-VLR-AMC); details: read-out: IC50 2c - VLR (β2c); substrate Z-VLR-AMC
Experimental: as §1

β5c in HepG2 cells = target: T2, β5c in HepG2 cells (Homo sapiens, UniProt P20618+P28074); assay: Intracellular β5c activity in HepG2 cells, suc-LLVY-luciferin; type: cell-based
T2 construct: host or cells: HepG2
Experimental: To determine if this class of inhibitors is cell penetrable, we treated the B-cell lymphoma line Karpas 1106P[28] (expressing a high proportion of i-20S over c-20S) with PKS21221 before incubation with either (Ac-ANW)2-R110 (a specific substrate of β5i) or suc-LLVY-luciferin (a substrate of β5) (Fig. 4a). […] No β5i activity was detected in HepG2 cells using (Ac-ANW)2-R110 as a substrate.
Cell viability was determined by CellTiter-glo.
Intracellular proteasomal activity and inhibition assay were performed as reported. Karpas 1106P (80,000 cells per well) were plated and incubated with compound at indicated concentrations for 1 h at 37 °C. The activity of the overall β5 activity including β5i and β5c in each was measured in situ after compound removal with Proteasome-Glo assay kit according to manufacturer’s instructions. Luminescence was recorded on a SpectraMax M5 plate reader. Relative percentage of RLU was used to calculate the IC50s.

**Q.** With `Cc1ccc(S(=O)(=O)N[C@@H](CC(=O)NC(C)(C)C)C(=O)NCCNC(=O)c2cc(-c3ccccc3F)ccc2F)cc1` [PKS21221] as the molecule, how does the “Hill coefficient constant, inhibition of β5c” value (human β5c) read?
**A.** The value was ~ 1.

**Q.** What about the IC50 (human β5c; read-out: IC50 against β5c) of the same molecule?
**A.** The IC50 was 0.11 µM.

**Q.** What about the “inhibition of luciferase activity” value (luciferase) of the same molecule?
**A.** Its value is “does not inhibit”.

**Q.** And the “apoptosis and cell death, proliferating vs non-proliferating T cells” value (proliferating T cells)?
**A.** The value was “induced apoptosis and cell death to a greater extent in proliferating T cells than in non-proliferating T cells”.

**Q.** What about the “α for β5i (αi-20S)” value (β5i (i-20S)) of the same molecule?
**A.** Its value is 0.26.

**Q.** What about the “modality of inhibition of β5i” value (β5i (i-20S); versus substrate) of the same molecule?
**A.** Its value is “noncompetitive”.

**Q.** And the IC50 (β2i)?
**A.** Its IC50 is > 50 µM.

**Q.** What about the IC50 (β2c) of the same molecule?
**A.** The IC50 was > 50 µM.

**Q.** What about the IC50 (β5c in HepG2 cells) of the same molecule?
**A.** Its IC50 is 1.83 ± 0.138 µM.
